Earlier results, collected in US20250332117A1, “Thin Films with Peroxides and Uses Thereof” (Silverpeutics, Inc., priority 2024, published 2025).

Columns and labels:
bacteria = settings: general statement, no source given
cells = settings: general statement, no source given

SMILES: OO [peroxide, Hydrogen peroxide]
- peroxide concentration at which partial bacteriostatic effects are observed (bacteria): 25 to 50 µM
- peroxide concentration at which cell killing is observed (cells): above 500 μM
